Assays:
[1] = system: permanent 2-VO rats (chronic cerebral hypoperfusion); experiment: Morris water maze in permanent 2-VO (BCCAO) rats; assay type: in vivo, rat; details: Piracetam 600 mg/kg
Description: Chronic cerebral hypoperfusion was proceeded by a permanent, bilateral occlusion of the common carotid arteries (2-VO) of adult rats. The rats were anesthetized with 10% trichloro-acetaldehyde, and temperature probe was inserted into the rectum, and a separate heating lamp was used to maintain rectal temperature at normothermic level. After a midline neck skin incision, the common carotid artery were exposed and ligated by a 5-0 nylon suture.
Rats were randomly divided into six experimental groups (20 rats/each group): one sham-operated group, one vehicle control group, one piracetam-treated group (600 mg/kg), and three dl-PHPB-treated groups (13, 39, and 129 mg/kg). In 10 days after onset of 2-VO, drugs and vehicle were administered orally to rats for 21 days (one time/each day). The spatial learning and memory capability of rats were detected by Morris water maze in the 25-30 days after operation. The Morris water test was commenced at 40 min after drugs treated. The biochemical and pathology assays were conducted later (in 24 h) after behavioral tests.
Subjects were tested in a Morris water maze. This test is based on a standardized assessment of spatial learning ability. The water maze apparatus consisted of a circular, stainless pool (120 cm in diameter, 60 cm in height). It was placed in a dimly lit, sound-proof test room. Multiple distant cues around the room (window, cabinets, furniture) were kept in the same location throughout the experiments. The water was filled to a depth of 40 cm at 25±1° C. and was made opaque by adding milk powder to prevent visualization of the platform. A transparent platform (10 cm diameter) was put 1.5 cm below the surface of the water. The tank was divided into four quadrants with the platform in a fixed position in one quadrant. The subjects were placed into the maze facing the pool wall and were allowed two trials per day, 60 s per trial, to find the hidden platform. If the subject found the platform within the 60 s, it was given a 10-s rest period on the platform between trials. If the pedestal was not located within the time allotted, the subject was placed on to the platform and allowed 10 s until the next trial. The escape latency (time to reach the platform) was used to assess acquisition of the water maze task. Sessions were repeated for five consecutive days. On the sixth day, the platform was removed and the rat was allowed to search for the platform for 60 s (probe test). The time in the platform quadrant and latency time to cross platform location were recorded to measure the spatial learning ability without the influence of chance encounters with the platform. The Morris water maze sessions were recorded with a video camera for offline analysis.

GFAP = GFAP immunohistochemistry, activated astrocytes of 2-VO rats; assay type: in vivo, rat
Procedure: The method for tissue fixation was described above. Serial coronal sections (40 μm) of the brains were cut through the dorsal hippocampus on a freezing microtome and collected in 6-well plates containing 0.01 M PBS. The detection of GFAP and BDNF immunoreactivity was performed using a conventional avidin-biotin-immunoperoxidease technique.
For quantitative analysis, one from every five samples in a continuous series of hippocampal or cortical tissue sections was taken, and was processed immunohistochemically. Thus, three slides were taken from each rat, and were read under an objective (×1.6) microscope. The total area of positively stained neurons was counted with Image-pro Plus 5.0 software.
Cerebral damage caused by hypoperfusion may be the basis for spatial learning and memory impairment, including earliest white matter damage, accompanied by an increase of astrocytes and microglia activation. Glial fibrillary acidic protein (GFAP) immunohistochemical staining can be used to label the activated astrocytes. 2-3 photos were taken from each selected slices in the same regions. The number of the GFAP positive astrocytes was calculated as the average value of the region. Four anatomical regions were selected to observe: the cortex, hippocampus, corpus callosum and optic tract.

[2] = 1st of 5 M/R/T/L column groups (day not printed)
[3] = 2nd of 5 M/R/T/L column groups (day not printed)
[4] = 3rd of 5 M/R/T/L column groups (day not printed)
[5] = 4th of 5 M/R/T/L column groups (day not printed)
[6] = 5th of 5 M/R/T/L column groups (day not printed)

## NC(=O)CN1CCCC1=O [Piracetam, reference compound]
[1]; [2]
  search strategy times, linear mode (L): 1
  search strategy times, marginal mode (M): 10
  search strategy times, random mode (R): 15
  search strategy times, tendency mode (T): 14
[1]; [3]
  search strategy times, linear mode (L): 8
  search strategy times, marginal mode (M): 3
  search strategy times, random mode (R): 11
  search strategy times, tendency mode (T): 17
[1]; [4]
  search strategy times, linear mode (L): 10
  search strategy times, marginal mode (M): 1
  search strategy times, random mode (R): 6
  search strategy times, tendency mode (T): 23
[1]; [5]
  search strategy times, linear mode (L): 10
  search strategy times, marginal mode (M): 1
  search strategy times, random mode (R): 7
  search strategy times, tendency mode (T): 23
[1]; [6]
  search strategy times, linear mode (L): 19
  search strategy times, marginal mode (M): 1
  search strategy times, random mode (R): 8
  search strategy times, tendency mode (T): 12
GFAP; Piracetam, 21 days
  GFAP-positive cells in the optic tract: significantly less than the vehicle group
GFAP; administration of 21 days, P<0.05 or P<0.01
  GFAP-positive cells in the hippocampus: significantly less than in the vehicle group
GFAP; administration of 21 days, in particular dl-PHPB 39 mg/kg (P<0.01)
  GFAP-positive cells in the cortex: significantly less than in the vehicle group
